Experimental data reported in patent publication US8828988B2 (Tetraphase Pharmaceuticals, Inc., priority 2009, dated 2014).
In brackets after ≈: the same amount, converted by molar mass. Where two headings read alike, the source gives them in different places.

How the values were obtained:
[1] = tested on: Staphylococcus aureus SA101, ATCC 29213, MSSA; test: MIC assay, SA101; assay type: cell-based; conditions: Table 8, read-out: MIC S. aureus ATCC 29213
[2] = tested on: Staphylococcus aureus SA161, HA-MRSA, tetracycline-resistant, tet(M); test: MIC assay, SA161; assay type: cell-based; conditions: Table 8, read-out: MIC S. aureus MRSA, tetM
[3] = tested on: Staphylococcus aureus SA158, tetracycline-resistant tet(K); test: MIC assay, SA158; assay type: cell-based; conditions: Table 8, read-out: MIC S. aureus tetK
[4] = tested on: Enterococcus faecalis EF103, ATCC 29212; test: MIC assay, EF103; assay type: cell-based; conditions: Enterococcus faecalis, ATCC29212; Table 8; read-out: MIC E. faecalis ATCC 29212
[5] = tested on: Enterococcus faecalis EF159, tetracycline-resistant, tet(M); test: MIC assay, EF159; assay type: cell-based; conditions: Table 8, read-out: MIC E. faecalis tetM
[6] = tested on: Streptococcus pneumoniae SP106, ATCC 49619; test: MIC assay, SP106; assay type: cell-based; conditions: ATCC49619, Table 8, read-out: MIC S. pneumoniae ATCC 49619
[7] = tested on: Streptococcus pneumoniae SP160, tetracycline-resistant, tet(M); test: MIC assay, SP160; assay type: cell-based; conditions: Table 8, read-out: MIC S. pneumoniae tetM
[8] = tested on: Escherichia coli EC107, ATCC 25922; test: MIC assay, EC107; assay type: cell-based; conditions: ATCC25922, Table 8, read-out: MIC E. coli ATCC 25922
[9] = tested on: Escherichia coli EC155, tetracycline-resistant, tet(A); test: MIC assay, EC155; assay type: cell-based; conditions: Table 8, read-out: MIC E. coli tetA
[10] = tested on: E. faecalis clinical isolates; test: MIC50, MIC90 and MIC range, panel of clinical isolates (Example 20); assay type: cell-based; conditions: 24 isolates, in µg/mL
Method: (§1) The assays were run as follows.
(§2) Both values, as well as the MIC range (the lowest and highest MIC value observed for a collection of organisms), were determined for the isolates listed in Table 3.

[11] = tested on: S. aureus clinical isolates; test: as above; assay type: cell-based; conditions: MRSA, 30 isolates; in µg/mL
Method: as §1, §2

[12] = tested on: S. pneumoniae clinical isolates; test: as above; assay type: cell-based; conditions: 19 isolates, in µg/mL
Method: as §1, §2

[13] = tested on: E. coli DH10B(pBAD-tetK), expressing tet(K); test: MIC against recombinant E. coli expressing tet(K); assay type: cell-based; conditions: for MIC: Escherichia coli; for MIC ratio, TetK induced to uninduced: ratio of TetK induced to uninduced MIC; for Effect of expression of (tet)K on activity: result in words
From the text: (§3) Constructs were transformed into E. coli DH10B for expression. Recombinant strains were pre-induced under optimized conditions with L-arabinose prior to use as inocula in CLSI standardized MIC assays.

[14] = tested on: E. coli DH10B(pBAD-tetM), expressing tet(M); test: MIC against recombinant E. coli expressing tet(M); assay type: cell-based; conditions: for MIC: Escherichia coli; for Ratio (TetM induced / Uninduced): ratio of MICs; for Effect of expression of (tet)M on activity: result in words
From the text: as §3

[15] = tested on: E. coli S30 extract system, coupled in vitro transcription/translation, firefly luciferase readout; test: In vitro transcription/translation (TnT) assay; assay type: biochemical; conditions: for IC50, in vitro transcription/translation system: E. coli S30 extract, luciferase readout
[16] = tested on: tet(K) strains of S. aureus; test: MIC, CLSI methodology, recent clinical isolates (Example 21); assay type: cell-based; conditions: Staphylococcus aureus, read-out: MIC against tet(K) strains of S. aureus
Method: as §1
(§4) The antibacterial activities of Compounds MIC values were determined according to CLSI methodology. Recent clinical isolates were obtained from Eurofins-Medinet. Antibiotics were obtained from standard commercial sources.

[17] = tested on: tet(M) and tet(S) strains of E. faecalis; test: as above; assay type: cell-based; conditions: Enterococcus faecalis, read-out: MIC against tet(M) and tet(S) strains of E. faecalis
Method: as §1, §4

[18] = tested on: tet(M) strains of S. aureus; test: as above; assay type: cell-based; conditions: Staphylococcus aureus, read-out: MIC against tet(M) strains of S. aureus
Method: as §1, §4

[19] = tested on: tet(M) strains of S. pneumoniae; test: as above; assay type: cell-based; conditions: Streptococcus pneumoniae, read-out: MIC against tet(M) strains of S. pneumoniae
Method: as §1, §4

SMILES | MIC [1] [µg/mL] | MIC [2] [µg/mL] | MIC [3] [µg/mL] | MIC [4] [µg/mL] | MIC [5] [µg/mL] | MIC [6] [µg/mL] | MIC [7] [µg/mL] | MIC [8] [µg/mL] | MIC [9] [µg/mL] | MIC Range [10] | MIC Range [11] | MIC Range [12] | MIC ([13]; read-out: MIC, TetK Induced) [µg/mL] | MIC ([13]; read-out: MIC, Uninduced) [µg/mL] | MIC ratio, TetK induced to uninduced [13] | Effect of expression of (tet)K on activity [13] | MIC ([14]; read-out: MIC, TetM induced) [µg/mL] | MIC ([14]; read-out: MIC, Uninduced) [µg/mL] | Ratio (TetM induced / Uninduced) [14] | Effect of expression of (tet)M on activity [14] | other results
CN(C)CC(C)(C)CNc1nc(F)c2c(c1O)C(=O)C1=C(O)[C@]3(O)C(=O)C(C(N)=O)=C(O)[C@@H](N(C)C)[C@@H]3C[C@@H]1C2 [Compound 133] | 1 (≈ 1.78 µM) | 2 (≈ 3.56 µM) | 0.5 (≈ 0.89 µM) | 0.5 (≈ 0.89 µM) | 2 (≈ 3.56 µM) | 0.5 (≈ 0.89 µM) | 1 (≈ 1.78 µM) | 1 (≈ 1.78 µM) | 8 (≈ 14.2 µM) | 0.25-4 | 0.5-8 | <=0.016-0.25 | 1 | 2 | 0.5 | unaffected | 2 | 0.5 | 4 | minimally affected | TnT IC50 [15]: 0.56 µg/mL; IC50, in vitro transcription/translation system [15]: 0.6 µg/mL (≈ 1.07 µM); MIC [16]: ≤ 1 µg/mL; MIC [17]: ≤ 4 µg/mL; MIC [18]: ≤ 8 µg/mL; MIC [19]: ≤ 0.25 µg/mL
CN(C)[C@@H]1C(O)=C(C(N)=O)C(=O)[C@@]2(O)C(O)=C3C(=O)c4c(O)c(NCC(C)(C)CN5CCCC5)nc(Cl)c4C[C@H]3C[C@@H]12 [Compound 108] | 0.25 (≈ 0.414 µM) | 2 (≈ 3.31 µM) | 0.13 (≈ 0.215 µM) | 0.5 (≈ 0.828 µM) | 2 (≈ 3.31 µM) | 0.031 (≈ 0.0513 µM) | 0.25 (≈ 0.414 µM) | 2 (≈ 3.31 µM) | 8 (≈ 13.2 µM) | 0.063-4 | 0.5-8 | <=0.016-0.13 | 2 | 4 | 0.5 | unaffected | 2 | 2 | 1 | minimally affected | TnT IC50 [15]: 0.6 µg/mL; IC50, in vitro transcription/translation system [15]: 0.62 µg/mL (≈ 1.03 µM); MIC [16]: ≤ 1 µg/mL; MIC [17]: ≤ 4 µg/mL; MIC [18]: ≤ 8 µg/mL; MIC [19]: ≤ 0.25 µg/mL
